Measured values taken from ChEMBL document CHEMBL4393699, “Ligand retargeting by binding site analogy” (Eur J Med Chem, 2019).
The source made the active and inactive calls. The calls are words filed in the database; no cut-off is given here.

Assays:
[1] = molecular target: T1, Beta-secretase 1 (Homo sapiens, UniProt P56817); assay: Inhibition of BACE1 (unknown origin) at 200 uM using HiLyte Fluo488/QXL-520 as substrate by FRET assay
[2] = molecular target: T1, Beta-secretase 1; assay: Inhibition of BACE1 (unknown origin) using HiLyte Fluo488/QXL-520 as substrate by FRET assay
[3] = molecular target: Voltage-gated inwardly rectifying potassium channel KCNH2 (Homo sapiens, UniProt Q12809); assay: Inhibition of fluorescently labeled tracer binding to human ERG at 200 uM by competitive binding assay
[4] = system: HeLa; assay: Antiproliferative activity against human HeLa cells assessed as reduction in cell growth incubated for 72 hrs by resazurin dye based fluorescent assay
[5] = species on record: Homo sapiens; assay: Selectivity ratio of IC50 for BACE1 (unknown origin) to IC50 for recombinant His-tagged […] (unknown origin) expressed in Escherichia coli BL21 (DE3) cells

T1 sequence (P56817 whole entry): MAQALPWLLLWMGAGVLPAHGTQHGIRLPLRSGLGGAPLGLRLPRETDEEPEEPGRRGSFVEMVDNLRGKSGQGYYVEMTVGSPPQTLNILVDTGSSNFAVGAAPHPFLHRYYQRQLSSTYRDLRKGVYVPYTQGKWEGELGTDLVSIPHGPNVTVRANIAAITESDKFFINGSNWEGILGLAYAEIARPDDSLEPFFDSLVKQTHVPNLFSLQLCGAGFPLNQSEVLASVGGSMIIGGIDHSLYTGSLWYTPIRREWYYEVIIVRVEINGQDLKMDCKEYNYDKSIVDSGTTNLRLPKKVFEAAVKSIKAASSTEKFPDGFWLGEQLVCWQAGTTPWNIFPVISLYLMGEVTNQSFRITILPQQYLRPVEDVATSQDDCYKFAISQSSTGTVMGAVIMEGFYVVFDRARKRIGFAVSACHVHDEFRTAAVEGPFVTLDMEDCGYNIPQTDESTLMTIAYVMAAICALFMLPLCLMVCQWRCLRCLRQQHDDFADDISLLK
Voltage-gated inwardly rectifying potassium channel KCNH2, sequence (Q12809 whole entry): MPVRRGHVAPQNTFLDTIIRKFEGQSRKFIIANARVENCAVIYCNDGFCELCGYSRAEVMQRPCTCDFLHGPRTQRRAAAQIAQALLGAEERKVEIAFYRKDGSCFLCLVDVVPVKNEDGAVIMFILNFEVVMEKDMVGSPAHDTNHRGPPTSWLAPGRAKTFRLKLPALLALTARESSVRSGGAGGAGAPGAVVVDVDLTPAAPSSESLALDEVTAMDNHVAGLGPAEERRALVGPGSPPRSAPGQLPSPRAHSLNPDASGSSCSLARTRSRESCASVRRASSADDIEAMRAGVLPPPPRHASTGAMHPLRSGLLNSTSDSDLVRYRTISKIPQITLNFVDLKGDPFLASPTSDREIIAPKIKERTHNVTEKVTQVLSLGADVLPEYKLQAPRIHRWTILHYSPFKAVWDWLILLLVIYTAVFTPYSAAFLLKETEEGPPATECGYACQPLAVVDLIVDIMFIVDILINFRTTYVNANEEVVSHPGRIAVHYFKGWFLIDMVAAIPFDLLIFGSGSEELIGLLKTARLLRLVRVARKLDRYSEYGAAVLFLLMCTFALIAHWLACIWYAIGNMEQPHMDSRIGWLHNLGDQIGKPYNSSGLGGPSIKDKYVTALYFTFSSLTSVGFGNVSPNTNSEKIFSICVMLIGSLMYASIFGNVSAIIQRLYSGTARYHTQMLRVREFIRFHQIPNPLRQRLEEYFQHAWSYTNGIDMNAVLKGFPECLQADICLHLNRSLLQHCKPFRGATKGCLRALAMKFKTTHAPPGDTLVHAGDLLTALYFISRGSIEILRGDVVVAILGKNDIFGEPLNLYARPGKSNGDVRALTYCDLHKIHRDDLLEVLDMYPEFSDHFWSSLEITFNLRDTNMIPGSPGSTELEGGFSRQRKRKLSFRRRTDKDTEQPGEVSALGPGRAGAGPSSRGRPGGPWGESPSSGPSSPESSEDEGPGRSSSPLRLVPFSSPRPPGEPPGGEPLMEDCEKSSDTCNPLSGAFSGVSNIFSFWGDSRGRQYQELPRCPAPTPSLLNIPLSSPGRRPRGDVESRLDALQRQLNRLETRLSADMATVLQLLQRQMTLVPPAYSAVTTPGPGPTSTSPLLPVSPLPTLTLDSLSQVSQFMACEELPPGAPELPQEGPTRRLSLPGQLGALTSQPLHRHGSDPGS

inhibition [1]	IC50 [2] [µM]	GI50 [4] [µM]	Structure (SMILES)	inhibition (INH) [3]	Ratio IC50 [5]
inactive	> 200	30 to 90	Nc1nc2c(-c3ccncc3F)ccnc2[nH]1	Not Active	
		3.8	Nc1nc(NC2CC2)cc(-c2cccc(Cl)c2Cl)n1		
			NCCc1ccc(O)c(C2CCCCC2)c1		5
inactive	> 200		Nc1nc2ncccc2[nH]1		
